By TGI is commonly meant the concentration at which net growth stops. As usually defined, the GI50 is the concentration that inhibits growth by half.

SMILES strings stand for the structures. Several values for one entry are separate records, joined by “and”; a condition that tells them apart may be missing. Equal entries are not always repeated.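 Each compound was tested at five concentrations against cells in 96-well plates for 48 hours. At the GI50, growth is halved. Definition used: TGI = concentration required for complete inhibition of growth.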

From PubChem BioAssay (NCI) come the findings set out here.

Among the test systems are MDA-N; UACC-62 melanoma; HOP-62 NSCLC; SR leukemia; SK-OV-3 ovarian; IGROV1 ovarian; SK-MEL-5 melanoma; T-47D breast; EKVX NSCLC; RXF 393 renal.
Assay in all cases: DTP human tumour cell line panel, 48 h

Consider `Cc1ccc(C2(O)c3ccccc3C(=O)N(C)C2(O)c2ccc(C)cc2)cc1` (configuration not stated), for which the TGI in the assay with MDA-N is greater than 100 µM; in the assay on UACC-62 melanoma it was greater than 100 µM; in the assay with HOP-62 NSCLC, 49.5 µM; in the assay with SR leukemia, 13.2 µM; in the assay on SK-OV-3 ovarian, greater than 100 µM; in the assay on IGROV1 ovarian, greater than 100 µM. In addition, the TGI in the assay with SK-MEL-5 melanoma, in the assay with T-47D breast, with EKVX NSCLC and in the assay on RXF 393 renal was greater than 100 µM throughout.

As for `Cc1cccc2c(N)c3cccc(C(=O)NCC[N+](C)(C)Cc4ccc([N+](=O)[O-])n4C)c3nc12`, the TGI in the assay with MDA-N was greater than 81.2 µM; with UACC-62 melanoma, greater than 79.6 µM; in the assay on HOP-62 NSCLC it was 61.7 µM; with SR leukemia, 36.6 µM; in the assay on SK-OV-3 ovarian, greater than 78 µM; with IGROV1 ovarian it was 58.4 µM. The TGI in the assay with SK-MEL-5 melanoma was 59 µM; in the assay with T-47D breast, greater than 85.9 µM; in the assay with EKVX NSCLC, greater than 100 µM; in the assay with RXF 393 renal, greater than 72.7 µM.

With `O=C(O)c1cc(N=Nc2ccc([N+](=O)[O-])cc2)ccc1O`, the TGI in the assay with MDA-N, with UACC-62 melanoma, in the assay on HOP-62 NSCLC, with SR leukemia, with SK-OV-3 ovarian and with IGROV1 ovarian was greater than 100 µM each time. For the same compound, the TGI with SK-MEL-5 melanoma, with T-47D breast, in the assay on EKVX NSCLC and in the assay on RXF 393 renal was greater than 100 µM each time.

For `O=C(Nc1ccccc1)c1cc2ccccc2c(N=Nc2cccc([N+](=O)[O-])c2)c1O`, the concentration for total growth inhibition (TGI) with MDA-N, with UACC-62 melanoma, in the assay with HOP-62 NSCLC, in the assay with SR leukemia, in the assay on SK-OV-3 ovarian and with IGROV1 ovarian was greater than 100 µM each time. For the same compound, the TGI in the assay with SK-MEL-5 melanoma, in the assay on T-47D breast, in the assay on EKVX NSCLC and in the assay with RXF 393 renal was greater than 100 µM in each case.

As to `N/C(=N\N=C\c1cc2ccccc2s1)c1cnccn1`, the TGI in the assay on MDA-N, in the assay with UACC-62 melanoma, with HOP-62 NSCLC, in the assay with SR leukemia, in the assay on SK-OV-3 ovarian and in the assay with IGROV1 ovarian was greater than 100 µM in each case. In addition, the TGI in the assay on SK-MEL-5 melanoma, with T-47D breast, in the assay on EKVX NSCLC and with RXF 393 renal was greater than 100 µM in each case.

In the case of `Cc1sc2c(c1C)C(=O)c1cccn1-2`, the TGI in the assay on MDA-N, with UACC-62 melanoma, in the assay on HOP-62 NSCLC, in the assay on SR leukemia, in the assay with SK-OV-3 ovarian and in the assay on IGROV1 ovarian was greater than 100 µM throughout. Further, the TGI in the assay with SK-MEL-5 melanoma, with T-47D breast, in the assay with EKVX NSCLC and with RXF 393 renal was greater than 100 µM each time.

With `CCN(CC)CCNc1c2ccccc2nc2cccc([N+](=O)[O-])c12`, the TGI with MDA-N came to 0.00373 µM; with UACC-62 melanoma it was 0.0208 µM; with HOP-62 NSCLC it was 0.0164 µM; in the assay on SR leukemia, 0.0888 µM; in the assay with SK-OV-3 ovarian it was 0.0637 µM; with IGROV1 ovarian, 0.0267 µM. Besides, the TGI in the assay with SK-MEL-5 melanoma is 0.0173 µM and 0.0258 µM; in the assay on T-47D breast it was 0.0661 µM; in the assay on EKVX NSCLC it was 0.0298 µM and 0.08 µM; in the assay on RXF 393 renal, 0.0351 µM and 0.0112 µM. Moreover, the GI50 in the assay on SK-MEL-5 melanoma was 0.0112 µM; with EKVX NSCLC, 0.029 µM.
